According to publication PMC7782499, “Progerinin, an optimized progerin-lamin A binding inhibitor, ameliorates premature senescence phenotypes of Hutchinson-Gilford progeria syndrome” (Communications Biology, 2021):
Where “and” joins values, the source holds several entries; their conditions need not be identical. Equal entries are not always repeated.

Tested on: Lmna G609G/+ mouse
Assay: Body weight of Lmna G609G/+ mice
Type: in vivo
Details: oral administration, relative body weight; for Lmna G609G/+ body weight, Ave: group average; for Lmna G609G/+ body weight: individual mouse
Excerpt: Fig. 3 In vivo favorable effect of SLC-D011. A Gross morphology of Lmna^G609G/G609G mice (10 weeks old) was ameliorated after injection with SLC-D011. At the same age, the experimental group (D011) of mice were larger than vehicle-injected control (Con) subjects regardless of gender. B, C SLC-D011 increases body weight B and extends life span C of Lmna^G609G/G609G progeria model mouse (Con: n = 8; SLC-D011: n = 8). Compared with 14.8 weeks of average (ave) life span with maximum (max) life span of 15.5 weeks, 20 mg/kg of intraperitoneal (i.p) injection (twice a week) of SLC-D011 could extend the life span upto 19 weeks (max = 21 weeks). Lmna^G609G/G609G mice were injected with SLC-D011 from age of 5-week old, *p < 0.05. D Gross morphology of SLC-D011 injected Lmna^G609G/+ mouse. […] E SLC-D011 increases body weights of Lmna^G609G/+ mice (Con: n = 10; SLC-D011: n = 11), *p < 0.05. F Favorable effect of SLC-D011 on life span of Lmna^G609G/+ mice. Compared with vehicle-injected control group (ave = 46.7 weeks and max = 48 weeks), SLC-D011 treatment obviously extended the average life span to 63 weeks (max = 64 weeks). The injection was started from 32 weeks old, **p < 0.001. “Con” means vehicle (a solvent composed of DMSO and PBS)-injected mouse group. TEXT PRINTED IN THE PICTURE: (C) D011: Kaplan-Meier survival curve in Lmna^G609G/G609G: Ave=19; Kaplan-Meier survival curve in Lmna^G609G/G609G: Max=21 | (F) D011: Kaplan-Meier survival curve in Lmna^G609G/+: Ave=63; Kaplan-Meier survival curve in Lmna^G609G/+: Max=64 DOUBTS OF THE COPYIST ABOUT THIS PICTURE: Panels C and F: the Ave/Max labels are not printed with a group name. They are assigned to D011 (solid curve) or Con (dashed curve) only by their position beside the curves. / Panel C Ave=14.8, Max=15.5 and panel F Ave=46.7, Max=48 stand beside the dashed Con curve. They are left out because Con is the control group, not a substance. / No unit is printed with the Ave/Max values. Only the axis reads Age (weeks).
Animal experiments were performed in a facility certified by the Association for Assessment and Accreditation of Laboratory Animal Care in compliance with animal policies approved by Pusan National University. The mouse work was performed under the study protocol PNU-2019-2181, as approved by the Institutional Animal Care and Use Committee. Lmna^G609G/609G mice were generated by timed mating of heterozygous Lmna^G609G/+ provided by Carlos López-Otín (Universidad de Oviedo, Asturias, Oviedo, Spain). SLC-D011 was mixed with dimethyl sulfoxide (DMSO) and phosphate-buffered saline (PBS). It was then intraperitoneally injected into mice (20 mg/kg twice per week from 5-week-old). SLC-D011 and lonafarnib were orally administrated to mice daily at a concentration of 10 mg/ml in monoolein-based solution. Lonafarnib was generously provided by Merck, the Progeria Research Foundation (PRF) and the PRF Lonafarnib Pre-clinical Drug Supply Program. Control mice were treated with monoolein-based solution alone in the same way. Lmna^G609G/609G mice were treated with clear chemical solution throughout the life span, starting from 5 weeks of age. Lmna^G609G/+ mice were treated via intraperitoneal and oral administrations, starting from 32 weeks of age.
Fig. S10. Or al administration of SLC-D011 suppresses premature aging features of LmnaG609G/+ mi c e . A.
Gross morphology of SLC-D011 treated Lmna G609G/+ mice at 36 weeks old. B. Oral administration of SLC-
D011 increases body weight s of LmnaG609G/+ mi c e (untreated: n=11; SLC-D011: n=12), * p<0.05. C. […]
intensity of H3K9me3 levels in lung, liver, and kidney tissues of age-matched Lmn a +/+ mouse, untreated
LamnG609G/+ mouse and two progerinin- treated LmnaG609G/+ mice (n = 2 independent experiments; one
Student’s t -test), **p < 0.001,*p< 0.05, N.S: not significant .AU, arbitrary units.
Fig. S12. […] A. SLC-D011, compar ed to lonafarnib, reduces […]

NC(=O)N1CCC(CC(=O)N2CCC([C@H]3c4ncc(Br)cc4CCc4cc(Cl)cc(Br)c43)CC2)CC1 [lonafarnib, reference compound]
Lmna G609G/+ body weight, Ave (week 36): 1
Lmna G609G/+ body weight (week 36): 1
Lmna G609G/+ body weight, Ave (week 38): 0.9406
Lmna G609G/+ body weight (week 38): 0.9091 and 0.9 and 0.96 and 0.95 and 0.913 and 0.9565
Lmna G609G/+ body weight, Ave (week 40): 0.9202
Lmna G609G/+ body weight (week 40): 0.8636 and 0.85 and 0.92 and 0.9 and 0.96 and 0.913 and 0.9565 and 0.95 and 0.9091
Lmna G609G/+ body weight, Ave (week 42): 0.88
Lmna G609G/+ body weight (week 42): 0.8636 and 0.8 and 0.84 and 0.85 and 0.92 and 0.913 and 0.88 and 0.9091
Lmna G609G/+ body weight, Ave (week 44): 0.8157
Lmna G609G/+ body weight (week 44): 0.7727 and 0.7 and 0.8 and 0.88 and 0.7273 and 0.8182 and 0.85
Lmna G609G/+ body weight, Ave (week 46): 0.7411
Lmna G609G/+ body weight (week 46): 0.7273 and 0.65 and 0.72 and 0.75 and 0.76 and 0.7 and 0.8182 and 0.8
Lmna G609G/+ body weight, Ave (week 48): 0.6808
Lmna G609G/+ body weight (week 48): 0.6818 and 0.6 and 0.64 and 0.75 and 0.68 and 0.7 and 0.7273 and 0.72
Lmna G609G/+ body weight, Ave (week 50): 0.6132
Lmna G609G/+ body weight (week 50): 0.5909 and 0.55 and 0.6 and 0.7 and 0.64 and 0.5 and 0.6957 and 0.65 and 0.6818
Lmna G609G/+ body weight, Ave (week 52): 0.4605
Lmna G609G/+ body weight (week 52): 0.4545 and 0 and 0.4 and 0.55 and 0.48 and 0.5217 and 0.6957 and 0.5 and 0.44
Lmna G609G/+ body weight, Ave (week 54): 0.1559
Lmna G609G/+ body weight (week 54): 0.4545 and 0 and 0.44 and 0.5217
